Results published in article PMC3516570, “The GM2 Glycan Serves as a Functional Coreceptor for Serotype 1 Reovirus” (PLoS Pathogens, 2012).

B1: reovirus type 1 Lang (T1L) σ1, construct σ1_(long) (amino acids 261–470), GCN4 domain and His6-tag removed (domain or fragment)
chain: LESAKIDSVLPPLTVREASGVRTLSFGYDTSDFTIINSVLSLRSRLTLPTYRYPLELDTANNRVQVADRFGMRTGTWTGQLQYQHPQLSWRANVTLNLMKVDDWLVLSFSQMTTNSIMADGKFVINFVSGLSSGWQTGDTEPSSTIDPLSTTFAAVQFLNNGQRIDAFRIMGVSEWTDGELEIKNYGGTYTGHTQVYWAPWTIMYPCNVR
notes: Made as His6-GCN4(trimeric)-σ1(261–470) in pQE-80L; Crystals were soaked with GM2 or GM3 glycan; also called cleaved σ1_(long); σ1 attachment protein; not shown: His6, N-terminal, cleaved; GCN4 trimeric leucine zipper, N-terminal, cleaved

Key:
T1L σ1long = molecular target: T1, T1L σ1long (Mammalian orthoreovirus 1 Lang, UniProt P04506); test: X-ray crystal structure ([…] Å); also STD NMR; assay type: binding; conditions: crystal soak with 20 mM glycan; same site as GM2 glycan; STD NMR pH 7.4, 283 K
T1 construct: gene S1; residues 261-470, three C-terminal beta-spirals plus head; E. coli; trimeric GCN4 zipper and His6-tag removed by trypsin (kept for glycan array); trimer

[1] = molecular target: the molecule itself; test: crystal structure; crystals of cleaved σ1_(long) grown in 0.1 M Na cacodylate (pH 6.0–6.6), 1.2–1.5 M (NH4)2SO4 at 4°C, soaked with 20 mM GM2 or GM3 oligosaccharide; space group P3_(2)21; 3.6 Å (GM2) and 3.5 Å (GM3)

| Molecule | X-ray crystal structure (3.5 Å); also STD NMR (T1L σ1long) | stoichiometry N [1] |
| --- | --- | --- |
| CC(=O)N[C@H]1[C@H]([C@H](O)[C@H](O)CO)O[C@@](O[C@H]2[C@@H](O)[C@@H](CO)O[C@@H](O[C@H]3[C@H](O)[C@@H](O)C(O)O[C@@H]3CO)[C@@H]2O)(C(=O)O)C[C@@H]1O (some centres unmarked) [GM3 glycan] | 4GU4 (T1L σ1-GM3 glycan complex) |  |
| B1 |  | 3 |
